Results as given in ChEMBL document CHEMBL3885881, “DrugMatrix”.

Organism: Rattus norvegicus
Experiment: DrugMatrix - Regimen: Daily Repeat
Type: toxicity, organism-based, Sprague-Dawley
Design: regimen Daily Repeat, gender Male, age 6-8 weeks
Settings: in vivo, po, route oral GAVAGE, […]; for ABSOLUTE BASOPHIL / BASOPHIL / NUCLEATED RED BLOOD CELLS / ABSOLUTE EOSINOPHIL / ABSOLUTE LYMPHOCYTE / ABSOLUTE MONOCYTE / ABSOLUTE SEGMENTED NEUTROPHIL / EOSINOPHIL / ERYTHROCYTE COUNT / HEMATOCRIT / HEMOGLOBIN / LEUKOCYTE COUNT / LYMPHOCYTE / MEAN CORPUSCULAR HEMOGLOBIN / MEAN CORPUSCULAR VOLUME / MONOCYTE / NEUTROPHIL / PLATELET COUNT: tissue Blood; for ALANINE AMINOTRANSFERASE / ALBUMIN / ALKALINE PHOSPHATASE / ASPARTATE AMINOTRANSFERASE / BLOOD UREA NITROGEN / CARBON DIOXIDE / CHLORIDE / CHOLESTEROL / CREATINE PHOSPHOKINASE / CREATININE / GLUCOSE / LACTATE DEHYDROGENASE / LIPASE / PHOSPHORUS / SODIUM / TOTAL BILIRUBIN / TOTAL PROTEIN / URIC ACID: tissue Plasma
[1] = 0 mg/kg, 72 h, dose level Control, time 3 day
[2] = 0 mg/kg, 120 h, dose level Control, time 5 day
[3] = 25 mg/kg, 72 h, dose level Low, time 3 day
[4] = 25 mg/kg, 120 h, dose level Low, time 5 day

SMILES: CC(=O)N1CCN(c2ccc(OCC3COC(Cn4ccnc4)(c4ccc(Cl)cc4Cl)O3)cc2)CC1 (configuration not stated) [KETOCONAZOLE]
- ABSOLUTE BASOPHIL [1]: 0 CELLS/uL
- BASOPHIL [1]: 0%
- NUCLEATED RED BLOOD CELLS [1]: 0 /100WBC
- ABSOLUTE BASOPHIL [2]: 0 CELLS/uL
- BASOPHIL [2]: 0%
- ABSOLUTE BASOPHIL [3]: 0 CELLS/uL
- ABSOLUTE EOSINOPHIL [3]: 0 CELLS/uL
- ABSOLUTE LYMPHOCYTE [3]: 6183 CELLS/uL
- ABSOLUTE MONOCYTE [3]: 155.33 CELLS/uL
- ABSOLUTE SEGMENTED NEUTROPHIL [3]: 695 CELLS/uL
- BASOPHIL [3]: 0%
- EOSINOPHIL [3]: 0%
- ERYTHROCYTE COUNT [3]: 5.13 x10E6/uL
- HEMATOCRIT [3]: 33.13%
- HEMOGLOBIN [3]: 12.97 G/DL
- LEUKOCYTE COUNT [3]: 7.03 x10E3/uL
- LYMPHOCYTE [3]: 87.67%
- MEAN CORPUSCULAR HEMOGLOBIN [3]: 25.3 pg
- MEAN CORPUSCULAR VOLUME [3]: 64.73 fL
- MONOCYTE [3]: 2%
- NEUTROPHIL [3]: 10.33%
- NUCLEATED RED BLOOD CELLS [3]: 0 /100WBC
- PLATELET COUNT [3]: 1118 x10E3/uL
- ALANINE AMINOTRANSFERASE [3]: 90.33 u/L
- ALBUMIN [3]: 3.83 G/DL
- ALKALINE PHOSPHATASE [3]: 423.67 u/L
- ASPARTATE AMINOTRANSFERASE [3]: 89.33 u/L
- BLOOD UREA NITROGEN [3]: 12.67 mg/dL
- CARBON DIOXIDE [3]: 39 mmol/L
- CHLORIDE [3]: 95.33 MEQ/L
- CHOLESTEROL [3]: 74 mg/dL
- CREATINE PHOSPHOKINASE [3]: 308.67 u/L
- CREATININE [3]: 0.15 mg/dL
- GLUCOSE [3]: 163.33 mg/dL
- LACTATE DEHYDROGENASE [3]: 69.33 u/L
- LIPASE [3]: 10 u/L
- PHOSPHORUS [3]: 9.63 mg/dL
- SODIUM [3]: 136.67 MEQ/L
- TOTAL BILIRUBIN [3]: 0.13 mg/dL
- TOTAL PROTEIN [3]: 5.53 G/DL
- URIC ACID [3]: 0.43 mg/dL
- ABSOLUTE BASOPHIL [4]: 0 CELLS/uL
- ABSOLUTE EOSINOPHIL [4]: 0 CELLS/uL
- ABSOLUTE LYMPHOCYTE [4]: 8189 CELLS/uL
- ABSOLUTE MONOCYTE [4]: 181 CELLS/uL
- ABSOLUTE SEGMENTED NEUTROPHIL [4]: 1063.33 CELLS/uL
- BASOPHIL [4]: 0%
- EOSINOPHIL [4]: 0%
- ERYTHROCYTE COUNT [4]: 5.6 x10E6/uL
- HEMATOCRIT [4]: 34.17%
- HEMOGLOBIN [4]: 13.47 G/DL
- LEUKOCYTE COUNT [4]: 9.43 x10E3/uL
- LYMPHOCYTE [4]: 86.67%
- MEAN CORPUSCULAR HEMOGLOBIN [4]: 24.07 pg
- MEAN CORPUSCULAR VOLUME [4]: 61.1 fL
- MONOCYTE [4]: 2%
- NEUTROPHIL [4]: 11.33%
- NUCLEATED RED BLOOD CELLS [4]: 0 /100WBC
- PLATELET COUNT [4]: 903 x10E3/uL
- ALANINE AMINOTRANSFERASE [4]: 74 u/L
- ALBUMIN [4]: 4.17 G/DL
- ALKALINE PHOSPHATASE [4]: 365.33 u/L
- ASPARTATE AMINOTRANSFERASE [4]: 92.33 u/L
- BLOOD UREA NITROGEN [4]: 11.33 mg/dL
- CARBON DIOXIDE [4]: 29.33 mmol/L
- CHLORIDE [4]: 103.67 MEQ/L
- CHOLESTEROL [4]: 75 mg/dL
- CREATINE PHOSPHOKINASE [4]: 400.67 u/L
- CREATININE [4]: 0.26 mg/dL
- GLUCOSE [4]: 155 mg/dL
- LACTATE DEHYDROGENASE [4]: 99.67 u/L
- LIPASE [4]: 11.67 u/L
- PHOSPHORUS [4]: 11.1 mg/dL
- SODIUM [4]: 144.93 MEQ/L
- TOTAL BILIRUBIN [4]: 0.2 mg/dL
- TOTAL PROTEIN [4]: 5.93 G/DL
- URIC ACID [4]: 0.8 mg/dL
